Experimental data taken from patent US10501801B2, “Identification of tumor-protective epitopes for the treatment of cancers” (THE UNIVERSITY OF CONNECTICUT, priority 2012, dated 2019).
Where two headings read alike, the source gives them in different places. Ends that are not written are not given here.

Biological target: H-2 K^d (Mus musculus, UniProt P01902)
Assay: Binding of peptides to purified H-2 K^d (inhibition of radiolabeled standard peptide)
Method: Binding assays. Binding of peptides to H-2 K^d was determined using quantitative assays based on the inhibition of binding of a radiolabeled standard peptide to purified MHC molecules, essentially as known in the art. […] Under the conditions utilized, where [label]<[MHC] and IC50≥[MHC], the measured IC50 values are reasonable approximations of the KD values.

[1] = wild type counterpart peptide, Table 4, read-out: Measured IC50 for K^d Mut/WT: WT
[2] = wild type counterpart peptide, Table 5, read-out: Measured IC50 for K^d Mut/WT: WT
[3] = mutated peptide, Table 5, read-out: Measured IC50 for K^d Mut/WT: Mut

Sequence of H-2 K^d (P01902 22-368): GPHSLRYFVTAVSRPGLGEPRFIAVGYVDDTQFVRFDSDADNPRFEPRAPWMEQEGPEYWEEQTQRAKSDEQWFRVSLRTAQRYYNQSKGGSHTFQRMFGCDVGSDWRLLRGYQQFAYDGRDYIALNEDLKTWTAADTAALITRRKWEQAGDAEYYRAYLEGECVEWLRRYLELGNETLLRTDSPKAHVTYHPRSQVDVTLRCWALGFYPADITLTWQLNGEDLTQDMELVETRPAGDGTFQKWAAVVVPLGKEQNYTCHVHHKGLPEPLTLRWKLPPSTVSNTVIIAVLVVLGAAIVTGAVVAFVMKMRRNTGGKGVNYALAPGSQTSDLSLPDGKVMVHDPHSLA
Sequence of H-2 K^d (P61769 21-119 partner): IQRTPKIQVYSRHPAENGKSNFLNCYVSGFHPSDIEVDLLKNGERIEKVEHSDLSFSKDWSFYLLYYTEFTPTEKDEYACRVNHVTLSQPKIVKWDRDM

Row | Molecule | IC50 [2] | IC50 | further results
1 | HYINMILPI [Ufsp2, HYINM(i/S)LPI] | – | – | IC50 [1]: < 0.0001 µM
2 | AYAKQFAAI [Ube4a.1, A(y/D)AKQFAAI] | > 70 µM | – | –
3 | P(y/D)LTQYAIIML (PYLTQYAIIML; not fully specified; listed as Mus musculus) [Dhx8.1] | 1.65 µM | – | –
4 | PYLTQYAII [Dhx8.3, P(y/D)LTQYAII] | 1.42 µM | – | –
5 | PALKSEEKTL [Stau1.3] | – | > 70 µM | –
6 | VYLTCRLEKPA [Gapdh] | – | > 70 µM | –
7 | AYRLEGDRS [Dcaf6, A(y/D)RLEGDRS] | > 70 µM | – | IC50 [3]: > 70 µM
8 | QVFPGLME(l/R) (QVFPGLMEL; not fully specified; printed as QVFPGLME(l/R); listed as Mus musculus) [Atxn10.1] | 7.05 µM | – | IC50 [3]: > 70 µM
9 | VFPGLMEL [Atxn10.2, VFPGLME(l/R)] | – | – | IC50 [3]: > 70 µM
10 | DYVPMEQP [Alkbh6.1, D(y/D)VPMEQP] | > 70 µM | – | –
11 | NYLLSLVAVML [Serinc1] | – | 20.9 µM | –
12 | TTTPGGRPPYL [Sipa113] | > 70 µM | – | –
13 | HYLQGSNA [Fiz1, H(y/D)LQGSNA] | – | > 70 µM | –
14 | AYILAALTKL [Trim26.1] | – | 0.0011 µM | –
15 | LYDVDAAF [Cpsf2, L(y/D)DVDAAF] | > 70 µM | – | –
16 | ALKSEEKTL [Stau1.4] | > 70 µM | – | –
17 | CC[C@H](C)[C@H](N)C(=O)N[C@@H](Cc1ccc(O)cc1)C(=O)NCC(=O)N[C@H](C(=O)N[C@H](C(=O)N[C@@H](C)C(=O)N[C@@H](CCCNC(=N)N)C(=O)N[C@@H](CC(N)=O)C(=O)N[C@@H](CCCNC(=N)N)C(=O)N[C@@H](C)C(=O)N[C@@H](CC(C)C)C(=O)O)C(C)C)C(C)C [Dis312.1, I(y/D)GVVARNRAL] | – | > 70 µM | –
18 | AYILAALTKLQ [Zfp236.2, E(y/D)LDLQTQG] | > 70 µM | – | IC50 [3]: 10 µM
19 | SYCEPALNQA [Ncdn] | – | > 70 µM | –
20 | AYAKQFAA [Ube4a.2, A(y/D)AKQFAA] | – | > 70 µM | –
21 | YYVPLLKRVP(l/S) (YYVPLLKRVPL; not fully specified; printed as YYVPLLKRVP(l/S); listed as Mus musculus) [Alms1.2] | – | – | IC50 [1]: 1.49 µM
22 | ELQGLLEDE(l/R) (ELQGLLEDEL; not fully specified; printed as ELQGLLEDE(l/R); listed as Mus musculus) [Ccdc136] | 4.54 µM | – | IC50 [3]: > 70 µM
23 | KPALKSEEKTL [Stau1.2] | > 70 µM | – | –

Row | Molecule | IC50 [2] | IC50 | further results
24 | LYEAGVTDE [Tpst2.2, L(y/D)EAGVTDE] | > 70 µM | – | –
25 | PYKRLKAEPA [Prrc2a] | – | 0.261 µM | –
26 | AYILAALTKLQ [Trim26.2] | – | > 70 µM | –
27 | LYVSKLNGP [Galnt1, L(y/D)VSKLNGP] | – | > 70 µM | –
28 | LKSEEKTL [Stau1.1, LKSEEKT(l/P)] | > 70 µM | – | –
29 | SWSSRRSLLG(l/R) (SWSSRRSLLGL; not fully specified; listed as Mus musculus) [9430016H08Rik] | > 70 µM | – | IC50 [3]: > 70 µM
30 | SYMLQALCI [Tnpo3, (sy/LD)MLQALCI] | – | 0.146 µM | –
31 | EYLDLQTQ [Zfp236.1, E(y/D)LDLQTQ] | > 70 µM | – | –
32 | D(y/D)VPMEQPRPP (DYVPMEQPRPP; not fully specified; listed as Mus musculus) [Alkbh6.4] | 2.96 µM | – | –
33 | CYAKVKEQL [Ssx2ip, CYAK(v/L)KEQL] | – | – | IC50 [1]: 0.0032 µM
34 | KLQRQYRSPRL [Mast2] | – | – | IC50 [3]: 10.1 µM
35 | HYLSSILRL [Pacs2, HYLS(s/A)ILRL] | – | 1.27 µM | –
36 | PYLTQYAI [Dhx8.2, P(y/D)LTQYAI] | > 70 µM | – | IC50 [3]: > 70 µM
37 | GFHGCIHEVL [Slit3] | – | > 70 µM | –
38 | LYHTRPTAL [Kdm4b, L(y/D)HTRPTAL] | – | > 70 µM | –
39 | D(y/D)VPMEQPRP (DYVPMEQPRP; not fully specified; listed as Mus musculus) [Alkbh6.3] | – | – | IC50 [3]: > 70 µM
40 | GYSVLHLAI [Nfkb1, G(y/D)SVLHLAI] | – | 1.61 µM | –
41 | SEDKIKAIL [Rangap1] | 5.11 µM | – | –
42 | LYYERIHKKML [Ugdh] | 0.012 µM | – | –
43 | DYVPMEQPR [Alkbh6.2, D(y/D)VPMEQPR] | 51.2 µM | – | IC50 [3]: > 70 µM
44 | AYCETCWE(l/W) (AYCETCWEL; not fully specified; printed as AYCETCWE(l/W); cysteine pairing not given here; listed as Mus musculus) [Apc] | – | – | IC50 [1]: 0.06 µM
45 | P(y/D)LTQYAIIM (PYLTQYAIIM; not fully specified; listed as Mus musculus) [Dhx8.4] | 6.26 µM | – | –
